Assay: recombinant UMI read abundance after kanamycin selection (control-corrected) (log10(CPM+1)); higher = more efficient recombination; extreme values may be limits of the assay; sequences stand for … in AGTGCAGAGAAAATCGGCCAGTTTTCTCTGCCTGCAGTCCGCATGCCGTGGGACCCCTTGGGTTCTAACCTGTTGCCTAGATTTATGCAGCGGACTGCCTTTCTCCCAAAGTGATAAACCGG…AGGTTGGTTTCACT; site = the 11-nt donor
Outline: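 Sequencing read counts were converted to CPM, averaged over two replicates and scaled by control-derived factors. Results are given as log10(CPM+1). The reads covered the donor–target junction of recombinant UMIs from a pooled Escherichia coli screen of donor and donor-binding-loop pairs for the IS621 bridge recombinase.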
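Further: IS621 bridge recombinase in Escherichia coli cells against a fixed T5 target plasmid.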

## GGCCACCCATGGACCGGTTTTCCCGGTAATCCGTATTTGGT (site GGCCACCCTAG)
  recombinant UMI read abundance (log10): 0

## GGCCACCCATGGACCGGTTTTCCCGGTAATCCGTATTTGGT (site GGCCACCCTAT)
  recombinant UMI read abundance (log10): 0.0141

## GGCCAGTCATGGACCGGTTTTCCCGGTAATCCGTATTTGCA (site GGCCAGTCTTG)
  recombinant UMI read abundance (log10): 2.73

## GGCCATCCATGGACCGGTTTTCCCGGTAATCCGTATTTGGC (site GGCCATCCTGC)
  recombinant UMI read abundance (log10): 0

## GGCCATCCATGGACCGGTTTTCCCGGTAATCCGTATTTGTT (site GGCCAACCTAA)
  recombinant UMI read abundance (log10): 0

## GGCCATCCATGGACCGGTTTTCCCGGTAATCCGTATTTGTT (site GGCCACCCTAA)
  recombinant UMI read abundance (log10): 0.0125

## GGCCATCCATGGACCGGTTTTCCCGGTAATCCGTATTTGTT (site GGCCAGCCTAA)
  recombinant UMI read abundance (log10): 0.00245

## GGCCATCCATGGACCGGTTTTCCCGGTAATCCGTATTTGTT (site GGCCATCCTAA)
  recombinant UMI read abundance (log10): 0.0172

## GGCCCGCCATGGACCGGTTTTCCCGGTAATCCGTATTTGCC (site GGCCCGCCTGG)
  recombinant UMI read abundance (log10): 0

## GGCCCTACATGGACCGGTTTTCCCGGTAATCCGTATTTGTG (site GGCCCTACTCA)
  recombinant UMI read abundance (log10): 0.33

## GGCCGCACATGGACCGGTTTTCCCGGTAATCCGTATTTGCA (site GGCCGCACTTG)
  recombinant UMI read abundance (log10): 1.77

## GGCCGCCCATGGACCGGTTTTCCCGGTAATCCGTATTTGTT (site GGCCACCCTAA)
  recombinant UMI read abundance (log10): 0.0225

## GGCCGCCCATGGACCGGTTTTCCCGGTAATCCGTATTTGTT (site GGCCCCCCTAA)
  recombinant UMI read abundance (log10): 0.00441

## GGCCGCCCATGGACCGGTTTTCCCGGTAATCCGTATTTGTT (site GGCCGCCCTAA)
  recombinant UMI read abundance (log10): 0.00876

## GGCCGCCCATGGACCGGTTTTCCCGGTAATCCGTATTTGTT (site GGCCTCCCTAA)
  recombinant UMI read abundance (log10): 0.0158

## GGCCGTACATGGACCGGTTTTCCCGGTAATCCGTATTTGCT (site AGCCGTACTAG)
  recombinant UMI read abundance (log10): 0.00424

## GGCCGTACATGGACCGGTTTTCCCGGTAATCCGTATTTGCT (site CGCCGTACTAG)
  recombinant UMI read abundance (log10): 0.413

## GGCCGTACATGGACCGGTTTTCCCGGTAATCCGTATTTGCT (site GGCCGTACTAG)
  recombinant UMI read abundance (log10): 1.83

## GGCCGTACATGGACCGGTTTTCCCGGTAATCCGTATTTGCT (site TGCCGTACTAG)
  recombinant UMI read abundance (log10): 0.302

## GGCCTTTCATGGACCGGTTTTCCCGGTAATCCGTATTTGAC (site AGCCTTTCTGT)
  recombinant UMI read abundance (log10): 0

## GGCCTTTCATGGACCGGTTTTCCCGGTAATCCGTATTTGAC (site CGCCTTTCTGT)
  recombinant UMI read abundance (log10): 0

## GGCCTTTCATGGACCGGTTTTCCCGGTAATCCGTATTTGAC (site GGCCTTTCTGT)
  recombinant UMI read abundance (log10): 0

## GGCCTTTCATGGACCGGTTTTCCCGGTAATCCGTATTTGAC (site TGCCTTTCTGT)
  recombinant UMI read abundance (log10): 0

## GGCCTTTCATGGACCGGTTTTCCCGGTAATCCGTATTTGTC (site GGCCTTTCTGA)
  recombinant UMI read abundance (log10): 1.46

## GGCGATCCATGGACCGGTTTTCCCGGTAATCCGTATTTGAA (site GGCAATCCTTT)
  recombinant UMI read abundance (log10): 0.0192

## GGCGATCCATGGACCGGTTTTCCCGGTAATCCGTATTTGAA (site GGCCATCCTTT)
  recombinant UMI read abundance (log10): 0.0198

## GGCGATCCATGGACCGGTTTTCCCGGTAATCCGTATTTGAA (site GGCGATCCTTT)
  recombinant UMI read abundance (log10): 0.785

## GGCGATCCATGGACCGGTTTTCCCGGTAATCCGTATTTGAA (site GGCTATCCTTT)
  recombinant UMI read abundance (log10): 0.141

## GGCGCCTCATGGACCGGTTTTCCCGGTAATCCGTATTTGGG (site GGCGCCTCTCC)
  recombinant UMI read abundance (log10): 0.0423

## GGCGGGGCATGGACCGGTTTTCCCGGTAATCCGTATTTGTA (site GGCGGGGCTTA)
  recombinant UMI read abundance (log10): 1.53

## GGCGTAGCATGGACCGGTTTTCCCGGTAATCCGTATTTGTG (site GGCGTAGCTCA)
  recombinant UMI read abundance (log10): 0.747

## GGCTAGGCATGGACCGGTTTTCCCGGTAATCCGTATTTGGT (site AGCTAGGCTAC)
  recombinant UMI read abundance (log10): 0.208

## GGCTAGGCATGGACCGGTTTTCCCGGTAATCCGTATTTGGT (site CGCTAGGCTAC)
  recombinant UMI read abundance (log10): 0.399

## GGCTAGGCATGGACCGGTTTTCCCGGTAATCCGTATTTGGT (site GGCTAGGCTAC)
  recombinant UMI read abundance (log10): 0.271

## GGCTAGGCATGGACCGGTTTTCCCGGTAATCCGTATTTGGT (site TGCTAGGCTAC)
  recombinant UMI read abundance (log10): 0.0118

## GGCTCAGCATGGACCGGTTTTCCCGGTAATCCGTATTTGGG (site AGCTCAGCTCC)
  recombinant UMI read abundance (log10): 0.00802

## GGCTCAGCATGGACCGGTTTTCCCGGTAATCCGTATTTGGG (site CGCTCAGCTCC)
  recombinant UMI read abundance (log10): 0.0293

## GGCTCAGCATGGACCGGTTTTCCCGGTAATCCGTATTTGGG (site GGCTCAGCTCC)
  recombinant UMI read abundance (log10): 0.02

## GGCTCAGCATGGACCGGTTTTCCCGGTAATCCGTATTTGGG (site TGCTCAGCTCC)
  recombinant UMI read abundance (log10): 0.00932

## GGCTGACCATGGACCGGTTTTCCCGGTAATCCGTATTTGAA (site GGCTGACCTTT)
  recombinant UMI read abundance (log10): 0.00353

## GGCTTAACATGGACCGGTTTTCCCGGTAATCCGTATTTGTC (site GGCTTAACTGA)
  recombinant UMI read abundance (log10): 0.732

## GGGAAGACATGGACCGGTTTTCCCGGTAATCCGTATTTGGC (site GGGAAGACTGC)
  recombinant UMI read abundance (log10): 1.57

## GGGACCTCATGGACCGGTTTTCCCGGTAATCCGTATTTGGT (site GGGACCTCTAC)
  recombinant UMI read abundance (log10): 2

## GGGACCTCATGGACCGGTTTTCCCGGTAATCCGTATTTGTA (site GGGACCTCTTA)
  recombinant UMI read abundance (log10): 2.24

## GGGACGACATGGACCGGTTTTCCCGGTAATCCGTATTTGCA (site AGGAAGACTTG)
  recombinant UMI read abundance (log10): 0

## GGGACGACATGGACCGGTTTTCCCGGTAATCCGTATTTGCA (site GGGACGACTTG)
  recombinant UMI read abundance (log10): 2.07

## GGGAGTCCATGGACCGGTTTTCCCGGTAATCCGTATTTGTT (site CGGAATCCTAA)
  recombinant UMI read abundance (log10): 0.00442

## GGGAGTCCATGGACCGGTTTTCCCGGTAATCCGTATTTGTT (site GGGAGTCCTAA)
  recombinant UMI read abundance (log10): 0.709

## GGGAGTTCATGGACCGGTTTTCCCGGTAATCCGTATTTGCA (site GGGAGTTCTTG)
  recombinant UMI read abundance (log10): 1.13

## GGGATCTCATGGACCGGTTTTCCCGGTAATCCGTATTTGGG (site GGGATCTCTCC)
  recombinant UMI read abundance (log10): 1.71

## GGGATTTCATGGACCGGTTTTCCCGGTAATCCGTATTTGGG (site GGGATTTCTCC)
  recombinant UMI read abundance (log10): 0.679

## GGGCACCCATGGACCGGTTTTCCCGGTAATCCGTATTTGTT (site GGACACCCTAA)
  recombinant UMI read abundance (log10): 0.0162

## GGGCACCCATGGACCGGTTTTCCCGGTAATCCGTATTTGTT (site GGCCACCCTAA)
  recombinant UMI read abundance (log10): 0.161

## GGGCACCCATGGACCGGTTTTCCCGGTAATCCGTATTTGTT (site GGGCACCCTAA)
  recombinant UMI read abundance (log10): 0.325

## GGGCACCCATGGACCGGTTTTCCCGGTAATCCGTATTTGTT (site GGTCACCCTAA)
  recombinant UMI read abundance (log10): 0.268

## GGGCCGGCATGGACCGGTTTTCCCGGTAATCCGTATTTGGC (site AGGCCGGCTGC)
  recombinant UMI read abundance (log10): 0

## GGGCCGGCATGGACCGGTTTTCCCGGTAATCCGTATTTGGC (site CGGCCGGCTGC)
  recombinant UMI read abundance (log10): 0

## GGGCCGGCATGGACCGGTTTTCCCGGTAATCCGTATTTGGC (site GGGCCGGCTGC)
  recombinant UMI read abundance (log10): 0

## GGGCCGGCATGGACCGGTTTTCCCGGTAATCCGTATTTGGC (site TGGCCGGCTGC)
  recombinant UMI read abundance (log10): 0

## GGGCCTACATGGACCGGTTTTCCCGGTAATCCGTATTTGGG (site GGGCCTACTCC)
  recombinant UMI read abundance (log10): 0

## GGGCTCACATGGACCGGTTTTCCCGGTAATCCGTATTTGAT (site GAGCTCACTAT)
  recombinant UMI read abundance (log10): 0.00773

## GGGCTCACATGGACCGGTTTTCCCGGTAATCCGTATTTGAT (site GCGCTCACTAT)
  recombinant UMI read abundance (log10): 0.802

## GGGCTCACATGGACCGGTTTTCCCGGTAATCCGTATTTGAT (site GGGCTCACTAT)
  recombinant UMI read abundance (log10): 1.73

## GGGCTCACATGGACCGGTTTTCCCGGTAATCCGTATTTGAT (site GTGCTCACTAT)
  recombinant UMI read abundance (log10): 1.11

## GGGGAACCATGGACCGGTTTTCCCGGTAATCCGTATTTGAT (site AGGGAACCTAT)
  recombinant UMI read abundance (log10): 0

## GGGGAACCATGGACCGGTTTTCCCGGTAATCCGTATTTGAT (site CGGGAACCTAT)
  recombinant UMI read abundance (log10): 0

## GGGGAACCATGGACCGGTTTTCCCGGTAATCCGTATTTGAT (site GGGGAACCTAT)
  recombinant UMI read abundance (log10): 0

## GGGGAACCATGGACCGGTTTTCCCGGTAATCCGTATTTGAT (site TGGGAACCTAT)
  recombinant UMI read abundance (log10): 0

## GGGGACTCATGGACCGGTTTTCCCGGTAATCCGTATTTGCA (site GGGGACTCTTG)
  recombinant UMI read abundance (log10): 1.89

## GGGGAGACATGGACCGGTTTTCCCGGTAATCCGTATTTGCC (site GGGGAGACTGG)
  recombinant UMI read abundance (log10): 2.07

## GGGGATGCATGGACCGGTTTTCCCGGTAATCCGTATTTGGC (site GGGGATGCTGC)
  recombinant UMI read abundance (log10): 0

## GGGGCACCATGGACCGGTTTTCCCGGTAATCCGTATTTGTA (site GGGGCACCTTA)
  recombinant UMI read abundance (log10): 0

## GGGGCACCATGGACCGGTTTTCCCGGTAATCCGTATTTGTA (site GGGGCACCTTC)
  recombinant UMI read abundance (log10): 0.0203

## GGGGCACCATGGACCGGTTTTCCCGGTAATCCGTATTTGTA (site GGGGCACCTTG)
  recombinant UMI read abundance (log10): 0.00274

## GGGGCACCATGGACCGGTTTTCCCGGTAATCCGTATTTGTA (site GGGGCACCTTT)
  recombinant UMI read abundance (log10): 0.0754

Source: the supplement of paper PMC11208160
